# Values of other authors as cited in publication PMC4263154 (Journal of Clinical Pharmacology, 2013).
# Entries after “also recorded” stand apart in the source; their conditions may differ. Like-named read-outs stand apart in the source and are kept apart here.
# Key:
# [1] = not given; remark: listed apart in the source
Compound,effect on body weight and energy intake (Phase 1 and 2 clinical trials),erectogenic effect (clinical trial),effect on food intake or energy expenditure (MC4R; MC4R knock-out mice),effect on food intake or energy expenditure (MC4R; wild-type mice),sexual arousal ([1]; females with sexual behavior disorders),erectogenic activity ([1]; males with erectile dysfunction)
CC(=O)N[C@@H](C)c1cc(Cl)ccc1C1CCN(C(=O)[C@@H]2CN(C(C)(C)C)C[C@H]2c2ccc(F)cc2F)CC1 [MK-0493],failed to demonstrate effect; also recorded: lack of efficacy,failed to demonstrate the same effect,–,–,–,–
melanotan-II,–,–,no effect,did exert these effects,arousal,erectogenic activity
